Experimental data: patent US9346812B2, “Substituted pyrrolopyrimidine compounds, compositions thereof, and methods of treatment therewith” (Signal Pharmaceutical LLC, priority 2013, dated 2016)

system: CAL51 cell proliferation; experiment: Cell Titer Glo Proliferation Assay (CAL51); type: cell-based, human; settings: Homo sapiens, CAL-51; CAL51 cell proliferation, 72 h, Cell Titer Glo luminescence; read-out: Act. Level
Summary of the method: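 CAL51 triple-negative breast cancer cells in DMEM or RPMI with 10% FBS were treated after overnight culture with serially diluted compound at 0.2% final DMSO. After 72 h, viability was read as CellTiter-Glo luminescence.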

Structure (SMILES) | IC50 [nM]
CNC(=O)c1ccc(-c2c[nH]c3nc(Nc4ccc(C(=O)NC5COC5)cc4OC)nc(OC4CCCC4)c23)cc1 [Example 305, 4-(4-(cyclopentyloxy)-5-(4-(methylcarbamoyl)phenyl)-7H-pyrrolo[2,3-d]pyrimidin-2-ylamino)-3-methoxy-N-(oxetan-3-yl)benzamide] | < 100
CNC(=O)c1ccc(Nc2nc(OC3CCCC3)c3c(-c4ccc5ncccc5c4)c[nH]c3n2)c(OC)c1 [Example 306, 4-(4-(cyclopentyloxy)-5-(quinolin-6-yl)-7H-pyrrolo[2,3-d]pyrimidin-2-ylamino)-3-methoxy-N-methylbenzamide] | < 100
Cc1nc2ccc(-c3c[nH]c4nc(Nc5cn(C)nc5C)nc(OC5CCCC5)c34)cc2o1 [Example 307, 4-(cyclopentyloxy)-N-(1,3-dimethyl-1H-pyrazol-4-yl)-5-(2-methylbenzo[d]oxazol-6-yl)-7H-pyrrolo[2,3-d]pyrimidin-2-amine] | < 100
COc1cc(C(=O)NC2CN(C(C)=O)C2)ccc1Nc1nc(OC2CCCC2)c2c(-c3ccc4nc(C)oc4c3)c[nH]c2n1 [Example 308, N-(1-acetylazetidin-3-yl)-4-(4-(cyclopentyloxy)-5-(2-methylbenzo[d]oxazol-6-yl)-7H-pyrrolo[2,3-d]pyrimidin-2-ylamino)-3-methoxybenzamide] | 100 to 400
COc1cc(C(=O)NCC(C)(F)F)ccc1Nc1nc(OC2CCCC2)c2c(-c3ccc4nc(C)oc4c3)c[nH]c2n1 [Example 309, 4-(4-(cyclopentyloxy)-5-(2-methylbenzo[d]oxazol-6-yl)-7H-pyrrolo[2,3-d]pyrimidin-2-ylamino)-N-(2,2-difluoropropyl)-3-methoxybenzamide] | 100 to 400
CNC(=O)c1ccc(-c2c[nH]c3nc(Nc4ccc(C(=O)NC5COC5)cc4OC)nc(OC4CCOCC4)c23)cc1 [Example 310, 3-methoxy-4-(5-(4-(methylcarbamoyl)phenyl)-4-(tetrahydro-2H-pyran-4-yloxy)-7H-pyrrolo[2,3-d]pyrimidin-2-ylamino)-N-(oxetan-3-yl) benzamide] | < 100
COc1cc(C(=O)N2C[C@@H](OC)[C@H](OC)C2)ccc1Nc1nc(OC2CCCC2)c2c(-c3ccc4nc(C)oc4c3)c[nH]c2n1 [Example 311, (4-(4-(cyclopentyloxy)-5-(2-methylbenzo[d]oxazol-6-yl)-7H-pyrrolo[2,3-d]pyrimidin-2-ylamino)-3-methoxyphenyl) ((3R,4R)-3,4-dimethoxypyrrolidin-1-yl)methanone] | < 100
COc1cc(C(=O)N2CC2(C)C)ccc1Nc1nc(OC2CCCC2)c2c(-c3ccc4nc(C)oc4c3)c[nH]c2n1 [Example 312, (4-(4-(cyclopentyloxy)-5-(2-methylbenzo[d]oxazol-6-yl)-7H-pyrrolo[2,3-d]pyrimidin-2-ylamino)-3-methoxyphenyl)(2,2-dimethylaziridin-1-yl)methanone] | 400 to 1000
COc1cc(C(=O)N2C[C@@H]2C)ccc1Nc1nc(OC2CCCC2)c2c(-c3ccc4nc(C)oc4c3)c[nH]c2n1 [Example 313, (S)-(4-(4-(cyclopentyloxy)-5-(2-methylbenzo[d]oxazol-6-yl)-7H-pyrrolo[2,3-d]pyrimidin-2-ylamino)-3-methoxyphenyl)(2-methylaziridin-1-yl)methanone] | 400 to 1000
COc1cc(C(=O)NC2COC2)ccc1Nc1nc(O[C@H]2CC[C@@](C)(O)CC2)c2c(-c3ccc4nc(C)oc4c3)c[nH]c2n1 [Example 314, 4-(4-((1s,4s)-4-hydroxy-4-methylcyclohexyloxy)-5-(2-methylbenzo[d]oxazol-6-yl)-7H-pyrrolo[2,3-d]pyrimidin-2-ylamino)-3-methoxy-N-(oxetan-3-yl)benzamide] | < 100
COc1cc(C(=O)N2CC2)ccc1Nc1nc(O[C@H]2CC[C@@](C)(O)CC2)c2c(-c3ccc4nc(C)oc4c3)c[nH]c2n1 [Example 315, aziridin-1-yl(4-(4-((1s,4s)-4-hydroxy-4-methylcyclohexyloxy)-5-(2-methylbenzo[d]oxazol-6-yl)-7H-pyrrolo[2,3-d]pyrimidin-2-ylamino)-3-methoxyphenyl) methanone] | < 100
CNC(=O)c1ccc(-c2c[nH]c3nc(Nc4ccnn4C)nc(OC4CCCC4)c23)cc1 [Example 316, 4-(4-(cyclopentyloxy)-2-(1-methyl-1H-pyrazol-5-ylamino)-7H-pyrrolo [2,3-d]pyrimidin-5-yl)-N-methylbenzamide] | < 100
CNC(=O)c1ccc(-c2c[nH]c3nc(Nc4ccnn4C)nc(OC4CCOCC4)c23)cc1 [Example 317, N-methyl-4-(2-(1-methyl-1H-pyrazol-5-ylamino)-4-(tetrahydro-2H-pyran-4-yloxy)-7H-pyrrolo [2,3-d]pyrimidin-5-yl)benzamide] | 400 to 1000
